Results on ten compounds are retold here after PubChem BioAssay (NCI).

Common to all, as to experiment: inhibition of tumour cell growth, NCI panel, 48 h
For experiment [1], the system named is NCI-H460 lung.
Experiment [2] has as its system U251 CNS.
Experiment [3] deals with HCT-15 colon.
In experiment [4] the test system is CAKI-1 renal.
Experiment [5] concerns LOX IMVI melanoma.
Experiment [6] concerns NCI-H522 lung.
Experiment [7] relates to HCC-2998 colon.
Experiment [8] has as its system HOP-92 NSCLC.
The subject of experiment [9] is OVCAR-5 ovarian.
The test system of experiment [10] is EKVX NSCLC.

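Step 1: Grow cells in 96-well plates. Step 2: Expose to compound for 48 hours at 5 concentrations. Step 3: Interpolate endpoints linearly; if unreached, use highest concentration. Abbreviation: GI50, concentration required for 50% inhibition of growth. TGI is the concentration that stops growth completely.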 A value given as a limit tells only on which side of the number the result lay.

Turning to `CN(C)CC1(C)CC/C(=C\c2ccc(Cl)cc2)C1=O` (centres undefined), the TGI is 54.6 µM in [1]; greater than 100 µM in experiment [2]; greater than 100 µM in experiment [3]; greater than 100 µM in experiment [4]; 82.1 µM in experiment [5]; 33.1 µM in [6]. The TGI in experiment [7], in experiment [8] and in experiment [9] was greater than 100 µM throughout.

For `O=S(O)O.O=S(O)O.[Co].[NH2-].[NH2-].[NH2-].[NH2-]`, the GI50 in experiment [10], in experiment [1], in [2], in experiment [3], in [4] and in [5] was greater than 100 µM each time. The GI50 in [6], in [8] and in [9] was greater than 100 µM throughout. The TGI in experiment [10], in [1], in [2], in [3], in [4] and in [5] was greater than 100 µM throughout. For the same compound, the TGI in [6], in [8] and in experiment [9] was greater than 100 µM throughout.

For the compound `Clc1cc(Br)ccc1-c1ccc(CNCC2CCNCC2)o1`, the GI50 is 1.87 µM in [1]; 2.17 µM in experiment [2]; 1.86 µM in experiment [3]; 1.85 µM in experiment [4]; 1.86 µM in experiment [5]; 1.82 µM in [6]. Moreover, the GI50 in experiment [7] is 1.86 µM; in [8], 1.4 µM; in experiment [9] it was 1.89 µM. Moreover, the TGI in experiment [1] stood at 3.72 µM; in experiment [2], 4.03 µM; in experiment [3], 4.29 µM; in experiment [4] it was 3.58 µM; in [5], 3.7 µM; in experiment [6] it was 3.72 µM. Moreover, the TGI in experiment [7] stood at 3.45 µM; in experiment [8] it was 4.9 µM; in experiment [9] it was 3.93 µM.

For the compound `CC(C)(C)c1cc(C[P+](c2ccccc2)(c2ccccc2)c2ccccc2)cc(C(C)(C)C)c1O`, the GI50 is 0.413 µM in experiment [1]; 0.268 µM in experiment [2]; 2.39 µM in experiment [3]; 2.64 µM in experiment [4]; 0.457 µM in [5]; 0.33 µM in [6]. Moreover, the figures for the GI50 in experiment [7], in experiment [8] and in experiment [9] were 0.491 µM, 0.155 µM and 2.5 µM, respectively. Further, the TGI in experiment [1] turned out to be 2.59 µM; in experiment [2], 3.76 µM; in [3], 11.9 µM; in experiment [4] it was 8.7 µM; in [5], 1.89 µM; in experiment [6], 1.91 µM. For the same compound, the TGI in experiment [7] worked out at 10.2 µM; in experiment [8], 0.555 µM; in [9] it was 14.3 µM.

`COc1ccc(C)c2sc(N(Cc3cccnc3)C(=O)c3ccc(C#N)cc3)nc12`: the GI50 is 40 µM in experiment [1]; 42.3 µM in experiment [2]; 30.5 µM in experiment [3]; 47.2 µM in experiment [4]; 40.8 µM in experiment [5]; 29.7 µM in [6]. Besides, the figures for the GI50 in experiment [7], in experiment [8] and in [9] were 46.6 µM, 20.3 µM and 47.5 µM, respectively. Also, the TGI in experiment [1], in [2], in [3], in [4], in experiment [5] and in experiment [6] was greater than 100 µM each time. Besides, the TGI in experiment [7], in experiment [8] and in experiment [9] was greater than 100 µM in each case.

`COc1cc(CSc2nc3ccc(Cl)cc3c(=O)n2Cc2ccccc2)cc(OC)c1OC`: the GI50 in experiment [1] is 3.33 µM; in experiment [2], 4.36 µM; in experiment [3], 1.46 µM; in experiment [4] it was 3.19 µM; in experiment [5], 5.97 µM; in [6] it was 0.652 µM. In addition, the GI50 is 6.18 µM in [7], 1.93 µM in [8] and 7 µM in experiment [9]. Also, the TGI is greater than 100 µM in experiment [1]; 35.7 µM in experiment [2]; greater than 100 µM in experiment [3]; greater than 100 µM in experiment [4]; greater than 100 µM in [5]; 4.54 µM in experiment [6]. In addition, the TGI in [7] is greater than 100 µM; in experiment [8] it was 9.16 µM; in experiment [9] it was greater than 100 µM.

Take `C=C(C)CC(C(=O)O)c1ccc(C)cc1` (centres undefined): the TGI in experiment [10], in experiment [1], in [2], in experiment [3], in experiment [4] and in experiment [5] was greater than 100 µM each time. For the same compound, the TGI in [8] and in experiment [9] was greater than 100 µM in each case.

For the compound `COc1ccc(C2(Cl)C(Cl)(C(F)(F)F)C2(Cl)C(F)(F)F)cc1` (centres undefined), the TGI in experiment [10] is 31.6 µM; in [1] it was 30.2 µM; in [2], 28.2 µM; in experiment [3], 29.6 µM; in experiment [4], 29.5 µM; in experiment [5], 20.5 µM. For the same compound, the TGI is 29.8 µM in experiment [7], 27.1 µM in [8] and 27 µM in experiment [9].

For the compound `COc1ccc(C(=O)/C=C/c2cc(-c3ccc(OC)c(OC)c3)n[nH]2)cc1OC`, the GI50 in experiment [1] is 0.606 µM; in experiment [2], 1.2 µM; in experiment [3], 1.09 µM; in experiment [5], 1.29 µM; in experiment [6], 1.69 µM; in [7], 1.74 µM. For the same compound, the GI50 in experiment [8] was 1.97 µM; in [9] it was 1.76 µM. The TGI was found to be 4.36 µM in experiment [1]; 2.63 µM in experiment [2]; 5.39 µM in experiment [3]; 2.7 µM in [5]; 3.9 µM in [6]; 3.19 µM in experiment [7]. The TGI worked out at 8.12 µM in [8] and 5.24 µM in experiment [9].

With `O/N=C1/CCCC/C1=C\c1ccc(Cl)c(Cl)c1`, the TGI in experiment [10] was greater than 100 µM; in experiment [1] it was 57.1 µM; in [2], 38.9 µM; in experiment [3], greater than 100 µM; in [4], 99.7 µM; in experiment [5], 42.9 µM. In [7], this compound had a TGI of 75.3 µM.
